Data taken from patent US10138212B2, “Aminoquinazoline compounds as A2A antagonist” (Merck Sharp & Dohme Corp., priority 2015, dated 2018).

What was measured:
human A2a receptor = human A2a receptor (Homo sapiens (Human), UniProt P29274); assay: A2a competition binding assay using Scintillation Proximity technology
Procedure: (§1) Binding affinities of compounds of the invention for the human A2a receptor were determined in a competition binding assay using Scintillation Proximity technology. Thus, 1* μg, or preferably 0.25 μg of membranes from HEK293 cells expressing the human A2a receptor were incubated with a compound of the invention at concentrations ranging from 3000 nM to 0.15 nM in a reaction mixture containing also 0.5 nM of a tritiated form of 5-amino-7-[2-phenethyl]-2-(furan-2-yl)-7H-pyrazolo[4,3-e][1,2,4]triazolo[1,5-c]pyrimidine (the tritiated compound) and 25 μg of wheat germ agglutin-coated yttrium silicate SPA beads for one hour at room temperature with agitation. The beads were then allowed to settle to the bottom of the wells for 1 hr, after which the membrane-associated radioactivity was determined by scintillation counting in a TopCount microplate reader. Ki values were determined using the Cheng-Prusoff equation.
HEK293 cells expressing the human, rat, dog or monkey adenosine 2a receptor (Purchased from Perkin-Elmer # RBHA2AM400UA).
The Tritiated compound was prepared in-house by MRL Radiochemistry according to published methods.
Wheat germ agglutinin-coated yttrium silicate SPA beads (GE Healthcare #RPNQ0023). Dilute to 25 mg/ml in assay buffer.
Assay Buffer was prepared in house: Dulbecco's calcium and magnesium free phosphate buffered saline+10 mM MgCl2
Adenosine deaminase from calf intestine, 10 mg/2 ml (Roche #10 102 105 001).
A2a antagonist standard (9-chloro-1-(2-furanyl)-[1,2,4]triazolo1,5-c]quinazolin-5-amine from Tocris Bioscience)
Make eight 1:3 serial dilutions in 100% DMSO from a 3 mM compound stock
Transfer 50 nl of compound into a 384-well OptiPlate (Perkin Elmer).
Typically, final concentrations of compound used in the assay ranged from 3000 nM to 0.152 nM.
Dilute a solution of the Tritiated compound to 1.25 nM in assay buffer. This is a 2.5× solution. The final concentration in the assay is 0.5 nM. Calculate the concentration by counting two 5 μl aliquots.
Use *1 ug or preferrably 0.25 ug of membrane/well. Dilute membranes to 9.7 μg/ml in assay buffer. Treat with 20 ug/ml adenosine deaminase (ADA) for 15 minutes at room temperature to degrade endogenous adenosine.
Use 25 μg/well wheat germ agglutinin-coated yttrium silicate SPA beads.
Mix ADA-treated membranes and SPA beads together for 30 min prior to assay.
To the Perkin-Elmer Optiplate-384 containing the compound titration add 20 μl of 2.5× solution of the Tritiated compound and 30 μl of the membrane-bead mixture. Incubate for one hour at room temperature with agitation.
Include total binding (assay buffer+1% DMSO) and non-specific binding (CGS15943, 1 μM) wells.
Allow the beads to settle for one hour.
A curve fitting program (i.e., Prism, Activity Base, Chemcart) is used to determine the EC50. The Ki value is calculated using the Cheng-Prusoff equation. Ki=EC50/(1+(radioligand concentration/Kd))
Using the foregoing assay method, the Ki results were obtained using the compounds of the invention described in Tables IIIa, IIIb, and IV. Each example compound tested is reported in the following format: Example number: A2a Ki reported in nM. Thus, for example, the compound Ex-1 was determined to have an Ki using the above-described assay and calculations, of 10.0 nM.

human A1 receptor = human A1 receptor (Homo sapiens (Human), UniProt P30542); assay: A1 competition binding assay using Scintillation Proximity technology; selectivity = A1 binding Ki / A2a binding Ki; settings: A1 binding Ki divided by A2a binding Ki
human A1 receptor, sequence (P30542 whole entry): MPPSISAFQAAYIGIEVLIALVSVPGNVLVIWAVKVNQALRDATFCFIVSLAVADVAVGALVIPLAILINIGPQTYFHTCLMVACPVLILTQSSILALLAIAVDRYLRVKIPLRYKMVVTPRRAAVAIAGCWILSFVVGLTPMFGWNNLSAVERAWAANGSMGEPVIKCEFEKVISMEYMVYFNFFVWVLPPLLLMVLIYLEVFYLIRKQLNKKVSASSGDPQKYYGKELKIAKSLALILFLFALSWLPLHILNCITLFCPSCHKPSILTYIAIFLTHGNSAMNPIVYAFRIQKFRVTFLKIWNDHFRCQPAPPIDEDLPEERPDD
Procedure: as §1, with “A1” for “A2a”, “5” for “1* μg, or preferably 0.25 μg”, “CHO-K1” for “HEK293”, “0.7” for “0.5”, “8-Cyclopentyl-1,3-dipropylxanthine” for “5-amino-7-[2-phenethyl]-2-(furan-2-yl)-7H-pyrazolo[4,3-e][1,2,4]triazolo[1,5-c]pyrimidine”, “in a similar fashion described with A2a binding.” for “using the Cheng-Prusoff equation.”
• Cells expressing the human, rat, dog or monkey adenosine 1 receptor (Purchased from Perkin-Elmer # ES-010-M400UA • [^3H]DPCPX (purchased from Perkin-Elmer NET-974, 8-cyclopentyl-1,3-dipropylxanthine, [dipropyl-2,3-^3H(N)]. • Wheatgerm agglutinin-coated yttrium silicate SPA beads (Purchased from GE Healthcare #RPNQ0023). Dilute to 25 mg/ml in assay buffer. Store at 4° C. • Assay Buffer—Dulbecco's phosphate buffered saline without calcium and without magnesium+10 mM MgCl2 • Adenosine deaminase from calf intestine, 10 mg/2 ml (Roche #10 102 105 001). • DMSO • DPCPX (A1 antagonist) from Tocris Bioscience Compound Dilution • Dilute compounds to 1 mM in 100% DMSO
Make serial dilutions as necessary (i.e., 1:10, 1:3) in 100% DMSO.
Dilute 1:20 into assay buffer (i.e. 3 ul into 57 ul buffer). This is a 5× solution in 5% DMSO.
• Dilute [^3H]DPCPX to 1.75 nM in assay buffer. This is a 2.5× solution. The final concentration in the assay is 0.7 nM. Calculate the concentration by counting two 5 ul aliquots. Membrane Preparation • Use 5 ug of membrane/well. Dilute membranes to 250 ug/ml in assay buffer. Treat with 20 ug/ml adenosine deaminase (ADA) for 15 minutes at room temperature to degrade endogenous adenosine. Membrane-Bead Mixture • Use 25 ug/well wheatgerm agglutinin-coated yttrium silicate SPA beads • Mix ADA-treated membranes and SPA beads together for 30 min prior to assay. Assay Assembly • Add in order to a Perkin-Elmer Optiplate-384: 10 ul of 5× compound, 20 ul of 2.5× [^3H]DPCPX, 20 ul membrane-bead mixture. Incubate for one hour at room temperature with agitation. • Include total binding (assay buffer+1% DMSO) and non-specific binding (DPCPX, 1 uM) wells. Counting and Calculations

[1] = 0.25 μg of membranes from HEK293 cells expressing the human A2a receptor
[2] = * assay run with 1 μg of membranes versus 0.25 μg, HEK293 cells expressing the human A2a receptor

human A2a receptor, sequence (P29274 whole entry): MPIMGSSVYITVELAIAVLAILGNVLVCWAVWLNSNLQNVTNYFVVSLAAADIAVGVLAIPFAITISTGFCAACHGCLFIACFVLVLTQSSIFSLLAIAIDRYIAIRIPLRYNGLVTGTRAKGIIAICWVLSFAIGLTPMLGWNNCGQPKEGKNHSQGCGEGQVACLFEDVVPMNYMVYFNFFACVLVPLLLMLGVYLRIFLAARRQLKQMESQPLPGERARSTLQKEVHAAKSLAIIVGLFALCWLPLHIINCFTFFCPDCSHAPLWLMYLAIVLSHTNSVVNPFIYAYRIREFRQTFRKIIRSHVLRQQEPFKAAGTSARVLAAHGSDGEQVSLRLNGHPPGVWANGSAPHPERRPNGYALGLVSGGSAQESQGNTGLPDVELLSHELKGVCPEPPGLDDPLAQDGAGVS

Ki (human A2a receptor; [1]) | A2a selectivity (A2a A1 binding selectivity) (human A1 receptor) | Ki (human A2a receptor; [2]) | Compound
0.9 nM | 180 | – | COc1cccc2c(C(=O)NCc3ncccc3C)nc(N)nc12 [Example 24, 2-amino-8-methoxy-N-[(3-methyl-2-pyridyl)methyl]quinazoline-4-carboxamide]
0.5 nM | 89 | – | COc1cccc2c(C(=O)NCc3nc(C)ccc3F)nc(N)nc12 [Example 20, 2-amino-N-[(3-fluoro-6-methyl-2-pyridyl)methyl]-8-methoxy-quinazoline-4-carboxamide]
1.2 nM | 33 | – | Nc1nc(C(=O)NCc2cccc(Cc3ccc(F)c(F)c3)n2)c2cccc(F)c2n1 [Example 102, 2-amino-N-[[6-[(3,4-difluorophenyl)methyl]-2-pyridyl]methyl]-8-fluoro-quinazoline-4-carboxamide]
0.5 nM | 251 | – | COc1cccc2c(C(=O)NCc3cccc(COCC4CCCC4)n3)nc(N)nc12 [Example 49, 2-amino-N-[[6-(cyclopentylmethoxy-methyl)-2-pyridyl]methyl]-8-methoxy-quinazoline-4-carboxamide]
0.4 nM | 412 | – | COc1cccc2c(C(=O)NCc3cccc(C(F)(F)F)n3)nc(N)nc12 [Example 18, 2-amino-8-methoxy-N-[[6-(trifluoromethyl)-2-pyridyl]methyl]quinazoline-4-carboxamide]
– | 49 | 2.1 nM | COc1cccc2c(C(=O)NCc3cccc(COc4cccc(F)c4)n3)nc(N)nc12 [Example 54, 2-amino-N-[[6-[(3-fluorophenxoy)methyl]-2-pyridyl]methyl]-8-methoxy-quinazoline-4-carboxamide]
1.1 nM | 140 | – | COc1cccc2c(C(=O)NCc3cccc(CO[C@H]4CCOC4)n3)nc(N)nc12 [Example 52, 2-amino-8-methoxy-N-[[6-[[(3S)-tetrahydrofuran-3-yl]oxymethyl]-2-pyridyl]methyl]quinazoline-4-carboxamide]
2.3 nM | 560 | – | Nc1nc(C(=O)NCc2cccc3cccnc23)c2cccc(C(F)(F)F)c2n1 [Example 92, 2-amino-N-(8-quinolylmethyl)-8-(trifluoromethyl)quinazoline-4-carboxamide]
3 nM | 110 | – | COc1cccnc1CNC(=O)c1nc(N)nc2c(OC)cccc12 [Example 23, 2-amino-8-methoxy-N-[(3-methoxy-2-pyridyl)methyl]quinazoline-4-carboxamide]
– | 44 | 9.1 nM | Cc1ccc(-c2cccnc2CNC(=O)c2nc(N)nc3c(F)cccc23)nc1 [Example 68, 2-amino-8-fluoro-N-[[3-(5-methyl-2-pyridyl)-2-pyridyl]methyl]quinazoline-4-carboxamide]
1.5 nM | 117 | – | COc1cccc2c(C(=O)NCc3ncc(C)cc3C)nc(N)nc12 [Example 28, 2-amino-N-[(3,5-dimethyl-2-pyridyl)methyl]-8-methoxy-quinazoline-4-carboxamide]
6.6 nM | 89 | – | COc1cccc2c(C(=O)NCc3ccc(F)cn3)nc(N)nc12 [Example 26, 2-amino-N-[(5-fluoro-2-pyridyl)methyl]-8-methoxy-quinazoline-4-carboxamide]
– | 42 | 2.5 nM | COc1cccc2c(C(=O)NCc3cccc(Cc4ccccc4)n3)nc(N)nc12 [Example 103, 2-amino-N-((6-benzylpyridin-2-yl)methyl)-8-methoxyquinazoline-4-carboxamide]
929 nM | 3 | – | COc1cccc2c(C(=O)NC3(c4ccccn4)CC3)nc(N)nc12 [Example 40, 2-amino-8-methoxy-N-[1-(2-pyridyl)cyclopropyl]quinazoline-4-carboxamide]
0.3 nM | 230 | – | COc1cccc2c(C(=O)NCc3cccc(COc4ccc(F)cc4)n3)nc(N)nc12 [Example 45, 2-amino-N-[[6-[(4-fluorophenoxy)methyl]-2-pyridyl]methyl]-8-methoxy-quinazoline-4-carboxamide]
10 nM | 145 | – | COc1ccc(C(C)(C)O)nc1CNC(=O)c1nc(N)nc2c(OC)cccc12 [Example 1, 2-amino-N-[[6-(1-hydroxy-1-methyl-ethyl)-3-methoxy-2-pyridyl]methyl]-8-methoxy-quinazoline-4-carboxamide]
– | 36 | 3.2 nM | COc1cccc2c(C(=O)NCc3cccc(CSc4ccc(F)cc4)n3)nc(N)nc12 [Example 55, 2-amino-N-[[6-[(4-fluorophenyl)sulfanyl-methyl]-2-pyridyl]methyl]-8-methoxy-quinazoline-4-carboxamide]
6.3 nM | 111 | – | COc1cccc2c(C(=O)NCc3cccc(CSc4nc5ccccc5[nH]4)n3)nc(N)nc12 [Example 56, 2-amino-N-[[6-(1H-benzimidazol-2-ylsulfanylmethyl)-2-pyridyl]methyl]-8-methoxy-quinazoline-4-carboxamide]
0.5 nM | 297 | – | Nc1nc(C(=O)NCc2ccccc2-n2cccn2)c2cccc(F)c2n1 [Example 62, 2-amino-8-fluoro-N-[(2-pyrazol-1-ylphenyl)methyl]quinazoline-4-carboxamide]
4.2 nM | 63 | – | Cc1csc(-c2cccc(CNC(=O)c3nc(N)nc4c(F)cccc34)n2)n1 [Example 69, 2-amino-8-fluoro-N-[[6-(4-methylthiazol-2-yl)-2-pyridyl]methyl]quinazoline-4-carboxamide]

Compound | Ki (human A2a receptor; [1]) | A2a selectivity (A2a A1 binding selectivity) (human A1 receptor) | Ki (human A2a receptor; [2])
COc1cccc2c(C(=O)NCc3cccc(COC4CCCC4)n3)nc(N)nc12 [Example 48, 2-amino-N-[[6-(cyclopentoxymethyl)-2-pyridyl]methyl]-8-methoxy-quinazoline-4-carboxamide] | 0.5 nM | 447 | –
